Results: patent US9758477B2, “Sulfamoylbenzamide derivatives as antiviral agents against HBV infection” (priority 2011, dated 2017)
Read-outs that look alike come from different tables or passages of the source.

What was measured:
[1] = Cytotoxicity in AML12HBV10 cells, MTT assay; type: cell-based, murine; details: mouse; AML12HBV10 cells, 48 hours, MTT; read-out: CC50 (cellular toxicity)
Protocol: (§1) Determination of cytotoxicity of compounds of the disclosure in AML12HBV10 cells: To determine the cytotoxicity of the compounds, AML12HBV10 cells were seeded into 96-well plates at a density of 2×10^4 cells per well and cultured in DMEM/F12 media with 10% fetal bovine serum in the absence of tetracycline to allow pgRNA transcription and HBV DNA replication. One day after seeding, cells were left untreated or treated with a serial dilution of testing compounds, ranging from 50 μM to 0.39 μM, for 48 hours. The cell viability was measured by a MTT assay, following procedure provided by the manufacturer (Promega). The cytotoxicity of a compound was expressed as the concentration of compound that reduces the viability of the cells by 50% (CC50).

HBV [2] = assay: Antiviral efficacy in AML12HBV10 cells, HBV DNA by dot-blot hybridization; type: cell-based, Hepatitis B virus (HBV)
Protocol: The antiviral efficacy of the compounds of the disclosure, as presented in Tables 5, 6, 7, 8 and 9, were determined in AML12HBV10 cells. AML12HBV10 is an immortalized murine hepatocyte (AML12)-derived stable cell line that supports robust HBV replication in a tetracycline inducible manner (Xu et al.). The cells were seeded into 96 well plates at a density of 2×10^4 cells per well and cultured in DMEM/F12 media with 10% fetal bovine serum in the absence of tetracycline to allow pgRNA transcription and HBV DNA replication. One day after seeding, cells were left untreated or treated with a serial dilution of testing compounds, ranging from 50 μM to 0.39 μM, for 48 hours. Cells were then lysed by adding into each well of 100 μl lysis buffer containing 10 mM Tris-HCl (pH 7.6), 1 mM EDTA, 100 mM NaCl and 1% NP-40 and incubated at 37° C. for 30 minutes. Half amount (50 μl) of cell lysate from each well was combined with equal volume of denaturing solution containing 0.5N NaOH and 1.5M NaCl. After 5 minute incubation, 100 μl of neutralization solution (IM Tris-HCl, pH 7.4, 1.5M NaCl) was added into each well. The denatured cell lysates (totally 200 μl) were applied onto Nylon membrane using 96-well dot-blot manifold (Biorad). HBV DNA in the cell lysates were determined by dot-blot hybridization with alpha-^32P-UTP-labelled riboprobe specific for HBV minus strand DNA. The antiviral efficacy of a compound of the disclosure was expressed as the concentration that reduces the amount of HBV DNA by 50% (EC50).

[3] = tested on: capsid-associated HBV DNA; assay: Nucleocapsid-associated HBV DNA and DNA replication intermediates (particle gel hybridization, Southern blot); type: cell-based, Hepatitis B virus (HBV); details: AML12HBV10 cells, 2 days, FIG. 3 panels D and E; Bay41-4109 5 μM, AT-61 25 μM
Protocol: (§2) To obtain mechanistic insight of the compounds of present invention against HBV, AML12HBV10 cells cultured in the 12-well plates were treated with a series of concentrations of DVR-1, DVR-56 or DVR-23 for two days in the absence of tetracycline (Guo et al., 2007). As positive controls, the cells were also treated with Bay41-4109 (5 μM) or AT-61 (25 μM), the known HBV nucleocapsid assembly effectors that either bind to HBV core protein dimmer to misdirect its interaction and prevent capsid formation (Bay41-4109) (Deres et al., 2003: Stray and Zlotnick, 2006), or interact with a core assembly intermediate and promote the formation of empty capsids (AT-61) (Feld et al., 2007; Katen et al., King et al., 1998). The amounts of intracellular viral mRNA, encapsidated pgRNA, capsids and nucleocapsid-associated HBV DNA were analyzed with the methods detailed below.
Procedures of viral capsids and nucleocapsid-associated DNA analysis: HepDES19 cells were lysed by addition of 300 μl buffer containing 10 mM Tris-HCl (pH7.6), 100 mM NaCl, 1 mM EDTA and 0.1% NP-40 to each well of 12-well plate. […] HBV capsids were detected by probing the membrane with an antibody against HBV core protein (DAKO). […] The viral DNA was detected by hybridization with a α-^32P-UTP (800 Ci/mmol, Perkin Elmer) labeled minus strand specific full-length HBV riboprobe (Xu et al.). […]

encapsidated pgRNA = assay: Encapsidated pgRNA by Northern blot in AML12HBV10 cells; type: cell-based, Hepatitis B virus (HBV); details: 2 days, FIG. 3 panel C, Bay41-4109 5 μM, AT-61 25 μM
Protocol: as §2
Determination of encapsidated pgRNA: AML12HBV10 cells were lysed by addition of 600 μl of lysis buffer (50 mM Tris-HCl [pH 7.5], 1 mM EDTA, 150 mM NaCl, 1% NP-40) into each well of 12-well plates. The nuclei were removed by centrifugation at 5,000 g for 10 minutes. One-half of the sample was mixed with 6 U of micrococcal nuclease (Pharmacia) and 15 μl of 100 mM CaCl2 and incubated for 15 minutes at 37° C. to digest free nucleic acids. The reaction was stopped with 6 μl of 0.5 M EDTA, and capsids were precipitated by adding 125 μl of 35% polyethylene glycol 8000 in 1.75 M NaCl to the reaction and incubating in ice for 30 minutes, followed by centrifugation at 6,000 g for 10 minutes at 4° C. Pellets were re-suspended in 50 μl of TNE buffer (10 mM Tris-HCl [pH 8], 100 mM NaCl, 1 mM EDTA), pgRNA was extracted by the addition of 1 ml of Trizol reagent. The encapsidated pgRNA were electrophoresed through a 2.2 M formaldehyde-1% agarose gel, transferred to a nylon membrane, and immobilized by UV cross-linking (Stratagene). Hybridization was performed with an alpha-^32P-UTP labeled riboprobe specific for plus strand of HBV genome.

HBV capsids = assay: Viral capsids by particle gel assay; type: cell-based, Hepatitis B virus (HBV); details: AML12HBV10 cells, 2 days, FIG. 3 panel B; Bay41-4109 5 μM, AT-61 25 μM
Protocol: as §2
Procedures of viral capsids and nucleocapsid-associated DNA analysis: HepDES19 cells were lysed by addition of 300 μl buffer containing 10 mM Tris-HCl (pH7.6), 100 mM NaCl, 1 mM EDTA and 0.1% NP-40 to each well of 12-well plate. […] HBV capsids were detected by probing the membrane with an antibody against HBV core protein (DAKO). […] The viral DNA was detected by hybridization with a α-^32P-UTP (800 Ci/mmol, Perkin Elmer) labeled minus strand specific full-length HBV riboprobe (Xu et al.).

AML12HBV10 cells = assay: Cytotoxicity in AML12HBV10 cells, MTT assay; type: cell-based, murine
Protocol: as §1

[4] = Cytotoxicity in HepDES19 cells, MTT assay; type: cell-based; details: human, Table 10, HepDES19 cells, unit inferred
Protocol: as §1, with “human hepatoma-derived cell lines, HepDES19” for “AML12HBV10 cells: To determine the cytotoxicity of the compounds, AML12HBV10”, “2×10^4” left out, “tetracycline.” for “tetracycline to allow pgRNA transcription and HBV DNA replication.”, “6 days.” for “48 hours.”

HBV [5] = assay: Antiviral activity in HepDES19 cells, core-associated HBV DNA by Southern blot hybridization; type: cell-based; details: Hepatitis B virus, 144 h, Table 10, HepDES19 cells, 6 days, unit inferred
Protocol: FIG. 2 and Table 10, in human hepatoma-derived cell lines: To further confirm the antiviral activity of the compounds of the disclosure against HBV in human hepatocyte-derived cells, HepDES19 cells, a human hepatoma cell line supporting HBV replication in a tetracycline inducible manner (Guo et al., 2007), seeded into 12-well plates at a density of 5×10^5 cells per well and cultured in DMEM/F12 media with 10% fetal bovine serum and 1 μg/ml tetracycline. Two days after seeding, the cells were mock-treated or treated with a serial dilution of compounds of the disclosure, ranging from 10 μM to 0.018 μM, for 6 days in the absence of tetracycline. Upon the completion of treatment, cells were lysed by adding into each well of the 12-well plates 0.5 ml of lysis buffer containing 10 mM Tris-HCl (pH 8.0), 1 mM EDTA, 1% NP40 and 2% sucrose and incubating at 37° C. for 10 minutes. Cell debris and nuclei were removed by centrifugation and the supernatant was mixed with 130 μl of 35% polyethylene glycol (PEG) 8000 containing 1.5 M NaCl. After 1 hour incubation in ice, viral nucleocapsids were pelleted by centrifugation at 6,000×g for 5 min at 4° C., followed by 1 hour digestion at 37° C. in 400 μl of digestion buffer containing 0.5 mg/ml pronase (Calbiochem), 0.5% SDS, 150 mM NaCl, 25 mM Tris-HCl (pH 8.0) and 10 mM EDTA. The digestion mixture was extracted twice with phenol and DNA was precipitated with ethanol, dissolved in TE buffer (10 mM Tris-HCl, pH 8.0; 0.1 mM EDTA). One half of the DNA sample from each well was resolved by electrophoresis into a 1.5% agarose gel. The gel was then subjected to denaturation in a solution containing 0.5 M NaOH and 1.5 M NaCl, followed by neutralization in a buffer containing 1 M Tris-HCl (pH7.4) and 1.5 M NaCl. DNA was then blotted onto Hybond-XL membrane (GE Health care) in 20×SSC buffer. The amounts of cytoplasmic HBV core-associated HBV DNA were determined by Southern blot hybridization and the antiviral efficacy of a compound was expressed as its concentration that reduce the amount of HBV DNA by 50% (EC50) or 90% (EC90).

[6] = Hepatitis B virus, AML12HBV10 cells, 48 hours, concentration reducing HBV DNA by 50%, read-out: EC50 (antiviral activity by dot blot hybridization)
[7] = AML12HBV10 cells, 48 hours, MTT, read-out: CC50 (cellular toxicity)
[8] = AML12HBV10 cells, 48 hours, concentration reducing HBV DNA by 50%, read-out: EC50 (antiviral activity by dot blot hybridization)

SMILES: O=C(NCc1ccccc1)c1ccc2c(c1)NC(=O)c1ccccc1S2(=O)=O
- CC50 at 48 h [1]: > 50 µM
- EC50 (HBV [2]; [6]): 8 µM

SMILES: O=C(N/C(C(=O)N1CCCCC1)=C(/Cl)c1ccccc1)c1ccccc1 [AT-61]
- capsid-associated HBV DNA / DNA synthesis [3]: dose-dependently reduced
- level of encapsidated pgRNA (encapsidated pgRNA): dose-dependently reduced
- capsid formation (HBV capsids): did not affect

SMILES: COC(=O)C1=C(C)NC(c2ncc(F)cc2F)=N[C@H]1c1ccc(F)cc1Cl [Bay41-4109]
- capsid-associated HBV DNA / DNA synthesis [3]: completely abolished
- level of encapsidated pgRNA (encapsidated pgRNA): completely abolished
- capsid formation (HBV capsids): completely abolished

SMILES: Cc1cccc(NC(=O)c2cc(S(N)(=O)=O)ccc2Cl)c1 [DVR-16]
- CC50 (AML12HBV10 cells; [7]): > 50 µM
- EC50 (HBV [2]; [8]): 6 µM

SMILES: NS(=O)(=O)c1cc(C(=O)Nc2cccc(C(F)(F)F)c2)ccc1F [DVR-19]
- CC50 (AML12HBV10 cells; [7]): > 50 µM
- EC50 (HBV [2]; [8]): 9 µM

SMILES: NS(=O)(=O)c1cc(C(=O)Nc2cc(C(F)(F)F)ccc2Cl)ccc1F [DVR-21]
- CC50 (AML12HBV10 cells; [7]): > 50 µM
- EC50 (HBV [2]; [8]): 6.8 µM

SMILES: NS(=O)(=O)c1cccc(C(=O)Nc2ccccc2)c1 [DVR-22]
- CC50 (AML12HBV10 cells; [7]): > 50 µM
- EC50 (HBV [2]; [8]): 8 µM

SMILES: C=CCNS(=O)(=O)c1ccc(F)c(C(=O)Nc2ccc(F)c(F)c2)c1 [DVR-34]
- CC50 (AML12HBV10 cells; [7]): > 50 µM
- EC50 (HBV [2]; [8]): 4 µM

SMILES: O=C(Nc1ccc(F)c(F)c1)c1cc(S(=O)(=O)NC2CCCCC2)ccc1F [DVR-45, 5-cyclohexylsulfamoyl-N-(3,4-difluoro-phenyl)-2-fluoro-benzamide]
- CC50 at 6 days [4]: > 50 µM
- CC50 at 48 h [1]: > 50 µM
- CC50 (AML12HBV10 cells; Table 10, AML12HBV10 cells, unit inferred, read-out: AML12HBV10 CC50): > 50 µM
- EC50 (HBV [2]; [6]): 0.8 µM
- EC50 (HBV [2]; Hepatitis B virus, Table 10, AML12HBV10 cells, unit inferred, read-out: AML12HBV10 EC50): 0.8 µM
- EC90 (HBV [5]; HBV DNA reduced by 90%): 2.11 µM
- EC50 (HBV [5]; Southern blot): 0.48 µM

SMILES: COc1ccc(CCNS(=O)(=O)c2ccc(F)c(C(=O)Nc3ccc(Cl)cc3)c2)cc1OC [DVR-91]
- CC50 (AML12HBV10 cells; [7]): > 50 µM
- EC50 (HBV [2]; [8]): 16.8 µM
